Test results from PMC12775434, “Ultra-large virtual screening unveils potent agonists of the neuromodulatory orphan receptor GPR139” (Nature Communications, 2025).
Several values for one entry are separate records, joined by “and”; a condition that tells them apart may be missing. Identical values can stand only once. Like-named read-outs stand apart in the source and are kept apart here.

Legend:
Assay type in all cases: cell-based
[1] = target: T1, GPR139 (Homo sapiens, UniProt Q6DWJ6); test: Ca2+ mobilization assay, agonist mode, stable GPR139-CHOk1 cell line; details: for Emax: normalized to Lundbeck Cmp 1a, read-out: Emax (%) Ca2+; for change in potency with larger substituents on the thiophene ring: Ca2+ mobilization
T1 sequence (Q6DWJ6 1-353): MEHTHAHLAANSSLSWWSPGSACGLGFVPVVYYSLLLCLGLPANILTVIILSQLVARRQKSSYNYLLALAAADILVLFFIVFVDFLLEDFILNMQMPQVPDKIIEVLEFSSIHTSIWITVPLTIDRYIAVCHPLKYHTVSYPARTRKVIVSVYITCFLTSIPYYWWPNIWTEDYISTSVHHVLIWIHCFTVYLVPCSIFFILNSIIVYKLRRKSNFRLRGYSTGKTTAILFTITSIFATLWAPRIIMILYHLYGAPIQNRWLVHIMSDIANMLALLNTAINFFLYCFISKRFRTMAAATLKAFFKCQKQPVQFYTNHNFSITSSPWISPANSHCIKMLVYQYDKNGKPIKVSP
How it was run: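 Agonist activity of compounds is assessed in stably transfected CHO-K1 cells using the calcium dye Fluo-4 at 37 °C in HEPES-buffered HBSS (pH 7.4). Efficacy is expressed relative to the reference agonist Lundbeck Cmp 1a, set as 100%.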

[2] = target: T1, GPR139; test: Ca2+ mobilization assay, antagonist mode (EC80 800 nM Lundbeck Cmp 1a after 20 min preincubation), GPR139-CHOk1; details: individual replicates (Supplementary Figure 4)
How it was run: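 Fluo-4-loaded GPR139-CHOk1 cells in HEPES-buffered HBSS (pH 7.4, 2.5 mM probenecid) given test compounds at 10 µM, then after 20 min challenged with 800 nM Lundbeck Cmp 1a (EC80). Calcium fluorescence read at 37 °C, 485/525 nm.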

[3] = target: T2, human muscarinic acetylcholine M1 receptor (M1R) (Homo sapiens, UniProt P11229); test: Ca2+ mobilization counter-screen in M1R-CHOk1 cells; details: individual replicates (Supplementary Figure 5)
T2 sequence (P11229 1-460): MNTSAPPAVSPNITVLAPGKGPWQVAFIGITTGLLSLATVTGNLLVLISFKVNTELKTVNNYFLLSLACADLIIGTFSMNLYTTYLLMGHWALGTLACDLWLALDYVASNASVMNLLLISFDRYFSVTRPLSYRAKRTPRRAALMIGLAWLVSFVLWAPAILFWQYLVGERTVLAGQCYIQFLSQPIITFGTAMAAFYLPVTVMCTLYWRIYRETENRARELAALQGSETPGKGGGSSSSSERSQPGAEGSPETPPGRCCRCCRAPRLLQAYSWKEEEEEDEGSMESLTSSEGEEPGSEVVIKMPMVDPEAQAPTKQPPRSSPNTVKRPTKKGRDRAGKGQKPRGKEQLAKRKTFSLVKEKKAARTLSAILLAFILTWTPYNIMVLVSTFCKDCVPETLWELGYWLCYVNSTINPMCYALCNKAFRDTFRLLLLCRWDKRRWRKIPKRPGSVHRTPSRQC
How it was run: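 M1R-CHOk1 cells seeded 20–24 h, loaded with 2 µM Fluo-4 AM (2.5 mM probenecid, 0.01% Pluronic F-68) for 1 h at 37 °C in HBSS/20 mM HEPES pH 7.4. Compounds added after baseline (≤0.3% DMSO); calcium fluorescence read at 37 °C, ex 485/em 525 nm.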

[4] = Agonist mode, individual replicates (Supplementary Figure 4)
[5] = Supplementary Table 2, mean ± SEM
[6] = log [Compound] M = -4.5, individual replicate columns
[7] = log [Compound] M = -5.0, individual replicate columns
[8] = log [Compound] M = -5.5, individual replicate columns
[9] = log [Compound] M = -6.0, individual replicate columns
[10] = log [Compound] M = -6.5, individual replicate columns
[11] = log [Compound] M = -7.0, individual replicate columns
[12] = log [Compound] M = -7.5, individual replicate columns
[13] = log [Compound] M = -8.0, individual replicate columns
[14] = log [Compound] M = -8.5, individual replicate columns
[15] = log [Compound] M = -9.0, individual replicate columns
[16] = Supplementary Table 2, mean ± SEM, read-out: pEC50 Ca2+ (converted)

EC50 ([1]; GPR139-CHOk1, read-out: EC50, Ca2+ mobilization) [nM] | Emax [1, 5] [%] | fold decrease in potency relative to a similar phenyl substituted compound (1.3) ([1]; Ca2+ mobilization EC50) | EC50 [1, 16] [nM] | SMILES | Ca2+ signal (% of Cmp 1a) [1, 4] | Ca2+ signal (% of Cmp 1a) [1, 6] | Ca2+ signal (% of Cmp 1a) [1, 7] | Ca2+ signal (% of Cmp 1a) [1, 8] | Ca2+ signal (% of Cmp 1a) [1, 9] | Ca2+ signal (% of Cmp 1a) [1, 10] | Ca2+ signal (% of Cmp 1a) [1, 11] | Ca2+ signal (% of Cmp 1a) [1, 12] | Ca2+ signal (% of Cmp 1a) [1, 13] | Ca2+ signal (% of Cmp 1a) [1, 14] | Ca2+ signal (% of Cmp 1a) [1, 15] | Ca2+ signal (% of Cmp 1a) [2] | Ca2+ signal (% of Carbachol) [3] | change in potency with larger substituents on the thiophene ring [1]
1000 | 72 ± 5 |  |  | COc1ccc(-c2nc(CC(=O)NC(C)c3ccccc3)no2)cc1 (stereo not drawn) [Compound 1.18, COC1=CC=C(C2=NC(CC(NC(C3=CC=CC=C3)C)=O)=NO2)C=C1] | 43 % of Cmp 1a and 66 % of Cmp 1a and 77 % of Cmp 1a | 87 % of Cmp 1a and 72 % of Cmp 1a and 75 % of Cmp 1a | 75 % of Cmp 1a and 67 % of Cmp 1a and 70 % of Cmp 1a | 73 % of Cmp 1a and 53 % of Cmp 1a and 59 % of Cmp 1a | 61 % of Cmp 1a and 23 % of Cmp 1a and 42 % of Cmp 1a | 30 % of Cmp 1a and 3.38 % of Cmp 1a and 24 % of Cmp 1a | 7 % of Cmp 1a and 9 % of Cmp 1a and 8 % of Cmp 1a | 6 % of Cmp 1a and 11 % of Cmp 1a and 5.71 % of Cmp 1a | -0.63 % of Cmp 1a and 3 % of Cmp 1a and 8 % of Cmp 1a | 3.39 % of Cmp 1a and 6.59 % of Cmp 1a and 3.49 % of Cmp 1a | 0.103 % of Cmp 1a and 9 % of Cmp 1a and 2.64 % of Cmp 1a | 26 % of Cmp 1a and 19 % of Cmp 1a and 8 % of Cmp 1a | 2 % of Carbachol and 2.18 % of Carbachol and -0.905 % of Carbachol | 
 | 109 ± 10 | 4- to 16 fold | 1000 | Cc1cc(-c2nc(CC(=O)NC(C)c3ccccc3)no2)ccn1 (stereo not drawn) [Compound 1.19, CC(C1=CC=CC=C1)NC(CC2=NOC(C3=CC(C)=NC=C3)=N2)=O] | 76 % of Cmp 1a and 74 % of Cmp 1a and 71 % of Cmp 1a | 117 % of Cmp 1a and 90 % of Cmp 1a and 116 % of Cmp 1a | 97 % of Cmp 1a and 89 % of Cmp 1a and 99 % of Cmp 1a | 77 % of Cmp 1a and 75 % of Cmp 1a and 88 % of Cmp 1a | 61 % of Cmp 1a and 62 % of Cmp 1a and 60 % of Cmp 1a | 30 % of Cmp 1a and 19 % of Cmp 1a and 26 % of Cmp 1a | 9 % of Cmp 1a and 6.33 % of Cmp 1a and 5.33 % of Cmp 1a | 4.67 % of Cmp 1a and 0.667 % of Cmp 1a and -2.67 % of Cmp 1a | 3 % of Cmp 1a and -3.33 % of Cmp 1a and -3.67 % of Cmp 1a | 13 % of Cmp 1a and -4.67 % of Cmp 1a and 2.33 % of Cmp 1a | 7 % of Cmp 1a and -8 % of Cmp 1a and -1.33 % of Cmp 1a | 5.67 % of Cmp 1a and -2 % of Cmp 1a and -8 % of Cmp 1a | 8 % of Carbachol and -12 % of Carbachol and 7 % of Carbachol | 
 | 86 ± 11 |  | 1260 | Cc1ccc(-c2nc(CC(=O)NC(C)c3ccccc3)no2)cc1C (stereo not drawn) [Compound 1.20, CC(C1=CC=CC=C1)NC(CC2=NOC(C3=CC(C)=C(C)C=C3)=N2)=O] | 61 % of Cmp 1a and 51 % of Cmp 1a and 42 % of Cmp 1a | 64 % of Cmp 1a and 88 % of Cmp 1a and 90 % of Cmp 1a | 59 % of Cmp 1a and 87 % of Cmp 1a and 93 % of Cmp 1a | 48 % of Cmp 1a and 72 % of Cmp 1a and 74 % of Cmp 1a | 21 % of Cmp 1a and 45 % of Cmp 1a and 55 % of Cmp 1a | 9 % of Cmp 1a and 20 % of Cmp 1a and 28 % of Cmp 1a | 10 % of Cmp 1a and 20 % of Cmp 1a and 26 % of Cmp 1a | 10 % of Cmp 1a and -2 % of Cmp 1a and 9 % of Cmp 1a | 2 % of Cmp 1a and -1.33 % of Cmp 1a and 4.67 % of Cmp 1a | 7 % of Cmp 1a and -0.667 % of Cmp 1a and -6 % of Cmp 1a | 5 % of Cmp 1a and 1.33 % of Cmp 1a and 10 % of Cmp 1a | 4 % of Cmp 1a and 29 % of Cmp 1a and -0.333 % of Cmp 1a | -9 % of Carbachol and 12 % of Carbachol and 5 % of Carbachol | 
 | 88 ± 6 |  | 1260 | Cc1c(-c2nc(CC(=O)NC(C)c3ccccc3)no2)sc2nccn12 (stereo not drawn) [Compound 1.21, CC(C1=CC=CC=C1)NC(CC2=NOC(C3=C(C)N4C=CN=C4S3)=N2)=O] | 51 % of Cmp 1a and 103 % of Cmp 1a and 63 % of Cmp 1a | 99 % of Cmp 1a and 106 % of Cmp 1a and 96 % of Cmp 1a and 82 % of Cmp 1a and 98 % of Cmp 1a | 106 % of Cmp 1a and 89 % of Cmp 1a and 74 % of Cmp 1a and 87 % of Cmp 1a and 93 % of Cmp 1a | 113 % of Cmp 1a and 82 % of Cmp 1a and 55 % of Cmp 1a and 93 % of Cmp 1a and 79 % of Cmp 1a | 58 % of Cmp 1a and 46 % of Cmp 1a and 13 % of Cmp 1a and 61 % of Cmp 1a and 35 % of Cmp 1a | 30 % of Cmp 1a and 22 % of Cmp 1a and -9 % of Cmp 1a and 34 % of Cmp 1a and 9 % of Cmp 1a | 11 % of Cmp 1a and 3.59 % of Cmp 1a and -6 % of Cmp 1a and 13 % of Cmp 1a and 2 % of Cmp 1a | -0.321 % of Cmp 1a and 1.12 % of Cmp 1a and 16 % of Cmp 1a and 9 % of Cmp 1a and 1.36 % of Cmp 1a | -0.311 % of Cmp 1a and 5 % of Cmp 1a and 16 % of Cmp 1a and 8 % of Cmp 1a and 4 % of Cmp 1a | -0.779 % of Cmp 1a and 5.49 % of Cmp 1a and -3.74 % of Cmp 1a and 4.43 % of Cmp 1a and 2.79 % of Cmp 1a | 6.41 % of Cmp 1a and 9 % of Cmp 1a and -8 % of Cmp 1a and 7.41 % of Cmp 1a and -0.105 % of Cmp 1a | 8 % of Cmp 1a and 24 % of Cmp 1a and 21 % of Cmp 1a | -6 % of Carbachol and -2 % of Carbachol and -1.22 % of Carbachol | three-fold reduction to a complete loss of activity
 | 99 ± 2 |  | 1580 | Cc1nc2cc(-c3nc(CC(=O)NC(C)c4ccccc4)no3)ccc2o1 (stereo not drawn) [Compound 1.22, CC(C1=CC=CC=C1)NC(CC2=NOC(C3=CC4=C(OC(C)=N4)C=C3)=N2)=O] | 71 % of Cmp 1a and 37 % of Cmp 1a and 44 % of Cmp 1a | 109 % of Cmp 1a and 96 % of Cmp 1a and 93 % of Cmp 1a and 83 % of Cmp 1a and 99 % of Cmp 1a | 90 % of Cmp 1a and 71 % of Cmp 1a and 95 % of Cmp 1a and 84 % of Cmp 1a and 101 % of Cmp 1a | 58 % of Cmp 1a and 43 % of Cmp 1a and 99 % of Cmp 1a and 59 % of Cmp 1a and 110 % of Cmp 1a | 50 % of Cmp 1a and 22 % of Cmp 1a and 51 % of Cmp 1a and 35 % of Cmp 1a and 73 % of Cmp 1a | 30 % of Cmp 1a and 0.909 % of Cmp 1a and 8 % of Cmp 1a and 29 % of Cmp 1a and 36 % of Cmp 1a | 1.28 % of Cmp 1a and -0.203 % of Cmp 1a and -2.54 % of Cmp 1a and 0.332 % of Cmp 1a and 14 % of Cmp 1a | 1.35 % of Cmp 1a and 7.39 % of Cmp 1a and -10 % of Cmp 1a and -1.26 % of Cmp 1a and 4 % of Cmp 1a | 7 % of Cmp 1a and 10 % of Cmp 1a and -6 % of Cmp 1a and 0.314 % of Cmp 1a and 2.72 % of Cmp 1a | -3.6 % of Cmp 1a and 18 % of Cmp 1a and -4.69 % of Cmp 1a and -1.59 % of Cmp 1a and 9 % of Cmp 1a | -5 % of Cmp 1a and 7.5 % of Cmp 1a and -3.72 % of Cmp 1a and 1.69 % of Cmp 1a and 6.38 % of Cmp 1a | 13 % of Cmp 1a and 39 % of Cmp 1a and 19 % of Cmp 1a | -19 % of Carbachol and -2.46 % of Carbachol and -2.2 % of Carbachol | three-fold reduction to a complete loss of activity
